Measured values from paper PMC5972026 (Journal of medicinal chemistry, 2017).
“Also recorded” adds a separate entry of the source. Structures can show the parent of a compound that is named as a salt.

What was measured:
[1] = test system: A/HK/7/87 virus (H3N2 subtype), wt M2; assay type: cell-based, influenza A virus
[2] = target: A/M2 wt channel (A/Udorn/72) (Influenza A virus, UniProt P0DOF5); assay: cell-based; assay type: cell-based
[3] = test system: A/HK/7/87 virus (H3N2 subtype), wt M2; assay type: cell-based, influenza A virus; remark: listed apart in the source
MDCK cells = details: 100 μM

A/M2 wt channel (A/Udorn/72), sequence (P0DOF5 whole entry, looked up): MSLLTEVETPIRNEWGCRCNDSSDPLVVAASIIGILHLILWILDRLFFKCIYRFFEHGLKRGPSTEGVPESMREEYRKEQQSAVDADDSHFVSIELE

SMILES	Antiviral activity in the PRA [1]	Binding behaviour [2]	Time after which compound dissociated from the channel [2]	Antiviral activity confirmed in virus yield assay [3]	Reversibility of inhibition [2]	inhibition at 100 µM ([2]; read-out: Inhibition after 6 min of treatment, 100 μM, 6 min)	Cytotoxicity at highest concentration tested (MDCK cells)
N=C(N)N1CCC(C=C2C3CC4CC(C3)CC2C4)CC1 [Compound 19, 4-[(adamantan-2-ylidene)methyl]piperidine-1-carboximidamide hydrochloride]	did not display antiviral activity	weak binding affinity					
N=C(N)N1CCC(CC2C3CC4CC(C3)CC2C4)CC1 (stereo not drawn) [Compound 20, 4-[(adamantan-2-yl)methyl]piperidine-1-carboximidamide hydrochloride]	did not display antiviral activity	weak binding affinity					
N=C(N)N1CCC(C23CC4CC(CC(C4)C2)C3)CC1 [Compound 7, N-amidyl-4-(1-adamantyl)piperidine hydrochloride]	did not display antiviral activity	weak binding affinity; also recorded: fast and weak binder	5 min				
Cl.OC1(CC2CCNCC2)C2CC3CC(C2)CC1C3 (stereo not drawn) [Compound 15, 2-(piperidin-4-ylmethyl)adamantan-2-ol hydrochloride]	active						
C1CCC(C23CC4CC(CC(C4)C2)C3)NC1 (stereo not drawn) [Compound 8, 2-(1-adamantyl)piperidine hydrochloride]	active	strong binders; also recorded: very slow but strong binding		confirmed	essentially irreversible	> 90%	devoid of cytotoxicity
C1CC(C23CC4CC(CC(C4)C2)C3)CCN1 [Compound 2, 4-(1-adamantyl)piperidine hydrochloride]	active	strong binder		confirmed	essentially irreversible		
